Source: PubChem BioAssay (NCI)
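Following 48 hours of exposure in 96-well plates, responses at five concentrations were used to interpolate endpoints linearly. GI50: concentration for 50% inhibition of growth. TGI: total growth inhibition.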

Tests used:
Experiment in all cases: DTP human tumour cell line panel, 48 h
SW-620 colon = system: SW-620 colon
U251 CNS = system: U251 CNS
MDA-MB-231 breast = system: MDA-MB-231 breast
RXF 393 renal = system: RXF 393 renal
KM12 colon = system: KM12 colon
MOLT-4 leukemia = system: MOLT-4 leukemia
SF-295 CNS = system: SF-295 CNS
OVCAR-5 ovarian = system: OVCAR-5 ovarian
HOP-62 NSCLC = system: HOP-62 NSCLC
OVCAR-3 ovarian = system: OVCAR-3 ovarian
NCI-H522 lung = system: NCI-H522 lung
NCI-H460 lung = system: NCI-H460 lung
BT-549 breast = system: BT-549 breast
786-0 renal = system: 786-0 renal
A498 renal = system: A498 renal
UACC-62 melanoma = system: UACC-62 melanoma
SNB-75 CNS = system: SNB-75 CNS
HCT-116 colon = system: HCT-116 colon
TK-10 renal = system: TK-10 renal
RPMI-8226 leukemia = system: RPMI-8226 leukemia
CAKI-1 renal = system: CAKI-1 renal
K-562 leukemia = system: K-562 leukemia
UACC-257 melanoma = system: UACC-257 melanoma
OVCAR-8 ovarian = system: OVCAR-8 ovarian
MDA-MB-435 = system: MDA-MB-435
HCC-2998 colon = system: HCC-2998 colon
SR leukemia = system: SR leukemia
NCI-H226 lung = system: NCI-H226 lung

CCCCCCCCCCCC[n+]1ccc2ccccc2c1
GI50 (SW-620 colon): 996 nM
TGI (SW-620 colon): 2560 nM
GI50 (U251 CNS): 348 nM
TGI (U251 CNS): 1420 nM
GI50 (MDA-MB-231 breast): 1280 nM
TGI (MDA-MB-231 breast): 2850 nM
GI50 (RXF 393 renal): 1360 nM
TGI (RXF 393 renal): 2880 nM
GI50 (KM12 colon): 397 nM
TGI (KM12 colon): 1510 nM
GI50 (MOLT-4 leukemia): 681 nM
TGI (MOLT-4 leukemia): 2650 nM
GI50 (SF-295 CNS): 882 nM
TGI (SF-295 CNS): 2740 nM
GI50 (OVCAR-5 ovarian): 1340 nM
TGI (OVCAR-5 ovarian): 3.74 µM
GI50 (HOP-62 NSCLC): 1480 nM
TGI (HOP-62 NSCLC): 3.01 µM
GI50 (OVCAR-3 ovarian): 579 nM
TGI (OVCAR-3 ovarian): 1890 nM
GI50 (NCI-H522 lung): 410 nM
TGI (NCI-H522 lung): 1880 nM
GI50 (NCI-H460 lung): 1690 nM
TGI (NCI-H460 lung): 3.27 µM
GI50 (BT-549 breast): 907 nM
TGI (BT-549 breast): 2490 nM
GI50 (786-0 renal): 1490 nM
TGI (786-0 renal): 2930 nM
GI50 (A498 renal): 2570 nM
TGI (A498 renal): 8.76 µM
GI50 (UACC-62 melanoma): 343 nM
TGI (UACC-62 melanoma): 1630 nM
GI50 (SNB-75 CNS): 1140 nM
TGI (SNB-75 CNS): 2780 nM
GI50 (HCT-116 colon): 857 nM
TGI (HCT-116 colon): 2370 nM
GI50 (TK-10 renal): 1170 nM
TGI (TK-10 renal): 2570 nM
GI50 (RPMI-8226 leukemia): 295 nM
TGI (RPMI-8226 leukemia): 949 nM
GI50 (CAKI-1 renal): 1650 nM
TGI (CAKI-1 renal): 5.06 µM
GI50 (K-562 leukemia): 247 nM
TGI (K-562 leukemia): 1960 nM
GI50 (UACC-257 melanoma): 405 nM
TGI (UACC-257 melanoma): 1820 nM
GI50 (OVCAR-8 ovarian): 654 nM
TGI (OVCAR-8 ovarian): 2340 nM
GI50 (MDA-MB-435): 387 nM
TGI (MDA-MB-435): 1550 nM
GI50 (HCC-2998 colon): 1070 nM
TGI (HCC-2998 colon): 2320 nM
GI50 (SR leukemia): 750 nM
TGI (SR leukemia): 2570 nM
GI50 (NCI-H226 lung): 1100 nM
TGI (NCI-H226 lung): 3.85 µM
